Results taken from ChEMBL document CHEMBL1201862, “PubChem BioAssay data set” (2004).
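Grown in 96-well plates, cells were treated for 48 hours with each compound at five concentrations. Insufficient inhibition: endpoint recorded as highest concentration tested. GI50 is the concentration that inhibits growth by half.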 Active and inactive are the calls of the source. Cut-off read from the data, not from the text of the source: active = GI50 up to about 1.1 µM and inactive = higher.

Assays:
Experiment in all cases: NCI-60 cell line screen, 48 h
[1] = tested on: T47D
[2] = tested on: SNB-19
[3] = tested on: SR
[4] = tested on: U-251
[5] = tested on: NCI-H460
[6] = tested on: OVCAR-4
[7] = tested on: SK-MEL-28
[8] = tested on: NCI-H23
[9] = tested on: MDA-MB-231
[10] = tested on: TK-10
[11] = tested on: SF-539
[12] = tested on: SF-295
[13] = tested on: NCI-H522
[14] = tested on: SK-MEL-5
[15] = tested on: NCI-H226
[16] = tested on: HT-29
[17] = tested on: HOP-62
[18] = tested on: SK-MEL-2
[19] = tested on: HOP-92
[20] = tested on: RXF 393
[21] = tested on: PC-3
[22] = tested on: A498
[23] = tested on: RPMI-8226
[24] = tested on: A549
[25] = tested on: MOLT-4
[26] = tested on: LOX IMVI
[27] = tested on: COLO 205
[28] = tested on: HCC 2998
[29] = tested on: K562
[30] = tested on: IGROV-1
[31] = tested on: EKVX
[32] = tested on: Hs-578T
[33] = tested on: M14
[34] = tested on: UACC-62
[35] = tested on: 786-0
[36] = tested on: MDA-N
[37] = tested on: DU-145
[38] = tested on: Malme-3M
[39] = tested on: KM12
[40] = tested on: SW-620
[41] = tested on: SK-OV-3
[42] = tested on: ACHN
[43] = tested on: MCF7
[44] = tested on: OVCAR-3
[45] = tested on: OVCAR-8
[46] = tested on: CCRF-CEM
[47] = tested on: SNB-75
[48] = tested on: OVCAR-5
[49] = tested on: UO-31
[50] = tested on: MDA-MB-435
[51] = tested on: HCT-15
[52] = tested on: SF-268
[53] = tested on: HL-60
[54] = tested on: CAKI-1
[55] = tested on: UACC-257
[56] = tested on: NCI/ADR-RES
[57] = tested on: SN12C
[58] = tested on: HCT-116

Which results are given for N#CCN(Cc1ccccc1)[C@H]1CCC[C@]1(O)/C=C/c1ccc2c(c1)OCO2?
GI50 [1]: 19.3 µM (inactive); GI50 [2]: 25.2 µM (inactive); GI50 [3]: 17.5 µM (inactive); GI50 [4]: 19.2 µM (inactive); GI50 [5]: 18.3 µM (inactive); GI50 [6]: 29 µM (inactive); GI50 [7]: 17.3 µM (inactive); GI50 [8]: 24.9 µM (inactive); GI50 [9]: 21.4 µM (inactive); GI50 [10]: 42.9 µM (inactive); GI50 [11]: 41.1 µM (inactive); GI50 [12]: 16.4 µM (inactive); GI50 [13]: 17 µM (inactive); GI50 [14]: 16.5 µM (inactive); GI50 [15]: 18.4 µM (inactive); GI50 [16]: 16 µM (inactive); GI50 [17]: 26.3 µM (inactive); GI50 [18]: 20 µM (inactive); GI50 [19]: 18.2 µM (inactive); GI50 [20]: 23.6 µM (inactive); GI50 [21]: 16.8 µM (inactive); GI50 [22]: 37.2 µM (inactive); GI50 [23]: 19.8 µM (inactive); GI50 [24]: 38.4 µM (inactive); GI50 [25]: 21.7 µM (inactive); GI50 [26]: 15.7 µM (inactive); GI50 [27]: 15.6 µM (inactive); GI50 [28]: 18.4 µM (inactive); GI50 [29]: 24.5 µM (inactive); GI50 [30]: 23.1 µM (inactive); GI50 [31]: 76.9 µM (inactive); GI50 [32]: 17.2 µM (inactive); GI50 [33]: 16.5 µM (inactive); GI50 [34]: 16.1 µM (inactive); GI50 [35]: 17.4 µM (inactive); GI50 [36]: 17.6 µM (inactive); GI50 [37]: 62.1 µM (inactive); GI50 [38]: 17.6 µM (inactive); GI50 [39]: 20 µM (inactive); GI50 [40]: 20.8 µM (inactive); GI50 [41]: 46.6 µM (inactive); GI50 [42]: 42 µM (inactive); GI50 [43]: 18.7 µM (inactive); GI50 [44]: 5.41 µM (inactive); GI50 [45]: 17.1 µM (inactive); GI50 [46]: 16.4 µM (inactive); GI50 [47]: 28.4 µM (inactive); GI50 [48]: 39.3 µM (inactive); GI50 [49]: 27.2 µM (inactive); GI50 [50]: 20 µM (inactive); GI50 [51]: 22.2 µM; GI50 [52]: 34.4 µM (inactive); GI50 [53]: 16.2 µM (inactive); GI50 [54]: 36.1 µM (inactive); GI50 [55]: 22.7 µM (inactive); GI50 [56]: 19.3 µM (inactive)

With c1ccc([P+](CCN2Cc3ccccc3C2)(c2ccccc2)c2ccccc2)cc1 as the compound, how does the GI50 [1] read?
The GI50 was 2.4 µM (inactive).

And the GI50 [2]?
Its GI50 is 6.7 µM (inactive).

What about the GI50 [3] of the same compound?
Its GI50 is 4.33 µM (inactive).

What about the GI50 [4] of the same compound?
Its GI50 is 2.19 µM (inactive).

What about the GI50 [5] of the same compound?
The GI50 was 5.79 µM (inactive).

What about the GI50 [7] of the same compound?
Its GI50 is 2.74 µM (inactive).

And the GI50 [8]?
The GI50 was 5.46 µM (inactive).

And the GI50 [9]?
The GI50 was 3.94 µM (inactive).

And the GI50 [10]?
Its GI50 is 10.4 µM (inactive).

And the GI50 [11]?
Its GI50 is 6.15 µM (inactive).

What about the GI50 [12] of the same compound?
The GI50 was 6.92 µM (inactive).

And the GI50 [13]?
Its GI50 is 2.73 µM (inactive).

What about the GI50 [14] of the same compound?
Its GI50 is 2.04 µM (inactive).

And the GI50 [15]?
The GI50 was 3.84 µM (inactive).

What about the GI50 [16] of the same compound?
The GI50 was 3.52 µM (inactive).

What about the GI50 [17] of the same compound?
The GI50 was 8.67 µM (inactive).

What about the GI50 [18] of the same compound?
Its GI50 is 2.27 µM (inactive).

What about the GI50 [19] of the same compound?
Its GI50 is 1.08 µM (active).

What about the GI50 [20] of the same compound?
The GI50 was 5.35 µM (inactive).

And the GI50 [21]?
Its GI50 is 4.8 µM (inactive).

And the GI50 [22]?
Its GI50 is 18 µM (inactive).

What about the GI50 [23] of the same compound?
The GI50 was 0.051 µM (active).

And the GI50 [24]?
The GI50 was 4.99 µM (inactive).

And the GI50 [57]?
Its GI50 is 4.56 µM (inactive).

And the GI50 [25]?
Its GI50 is 6.44 µM (inactive).

What about the GI50 [26] of the same compound?
Its GI50 is 3.84 µM (inactive).

And the GI50 [27]?
The GI50 was 1.56 µM (inactive).

And the GI50 [28]?
The GI50 was 2.94 µM (inactive).

And the GI50 [29]?
Its GI50 is 2.79 µM (inactive).

What about the GI50 [30] of the same compound?
Its GI50 is 0.368 µM (active).

What about the GI50 [31] of the same compound?
Its GI50 is 3.84 µM (inactive).

And the GI50 [32]?
Its GI50 is 12.5 µM (inactive).

What about the GI50 [33] of the same compound?
Its GI50 is 5.36 µM (inactive).

What about the GI50 [34] of the same compound?
Its GI50 is 2.85 µM (inactive).

What about the GI50 [35] of the same compound?
Its GI50 is 8.17 µM (inactive).

And the GI50 [36]?
Its GI50 is 3.27 µM (inactive).

And the GI50 [37]?
The GI50 was 5.87 µM (inactive).

What about the GI50 [38] of the same compound?
Its GI50 is 8.59 µM (inactive).

What about the GI50 [39] of the same compound?
Its GI50 is 3.23 µM (inactive).

And the GI50 [40]?
The GI50 was 4.22 µM (inactive).

And the GI50 [41]?
Its GI50 is 20.7 µM (inactive).

What about the GI50 [58] of the same compound?
The GI50 was 3 µM (inactive).

And the GI50 [42]?
The GI50 was 5.69 µM (inactive).

What about the GI50 [43] of the same compound?
The GI50 was 3.59 µM (inactive).

And the GI50 [44]?
The GI50 was 3.13 µM (inactive).

And the GI50 [45]?
Its GI50 is 2.32 µM (inactive).

And the GI50 [46]?
Its GI50 is 2.64 µM (inactive).

What about the GI50 [47] of the same compound?
The GI50 was 2.12 µM (inactive).

And the GI50 [48]?
Its GI50 is 16.6 µM (inactive).

What about the GI50 [49] of the same compound?
Its GI50 is 12.1 µM (inactive).

And the GI50 [50]?
Its GI50 is 3.58 µM (inactive).

And the GI50 [51]?
Its GI50 is 12.7 µM.

And the GI50 [52]?
Its GI50 is 5.77 µM (inactive).

And the GI50 [53]?
The GI50 was 2.77 µM (inactive).

What about the GI50 [54] of the same compound?
The GI50 was 38.3 µM (inactive).

And the GI50 [55]?
Its GI50 is 2.35 µM (inactive).

And the GI50 [56]?
Its GI50 is 69.5 µM (inactive).
